Measurements reported in patent publication US20250099596A1, “TETRAHYDRONAPHTHALENE COMPOUND, AND PREPARATION METHOD THEREFOR AND USE THEREOF IN MEDICINE” (Jiangsu Hengrui Pharmaceuticals Co., Ltd., priority 2021, published 2025).
Like-named read-outs stand apart in the source and are kept apart here.

Experiment: Pharmacokinetic evaluation, beagle test
Format: in vivo
Conditions: beagles; for AUC(0-t): read-out: Area under curve AUC0-t; for half-life: read-out: Half-life T1/2 (converted); for Cmax: read-out: Plasma concentration Cmax
Experimental: With beagles as test animals, the plasma concentrations of the compound of Example 26-1 and Comparative Example 1 were determined by LC/MS/MS at different time points after intragastric (i.g.)/intravenous (i.v.) administration to beagles. The pharmacokinetic behavior of the compound of the present disclosure in beagles was studied and its pharmacokinetic profile was evaluated.
The compound of Example 26-1 and Comparative Example 1 (see patent WO2018102725A1, Example 411), whose structure is shown below:
Sixteen beagles, of which half were male and half female, were evenly divided into 4 groups. The beagles were provided by Shanghai Medicilon Inc. The 4 groups were fasted overnight and then dosed intragastrically and intravenously.
Certain amounts of the compound of Example 26-1 and the compound of Comparative Example 1 were weighed out and mixed with 5% (v/v) DMSO+30% (v/v) PG+30% (v/v) PEG400+35% (v/v) normal saline to make 0.4 mg/mL clear solutions (for the intragastric administration groups) and 0.25 mg/mL clear solutions (for the intravenous administration groups).
The intragastric administration groups: the dose was 2.0 mg/kg, and the volume was 5.0 mL/kg.
The intravenous administration groups: the dose was 0.5 mg/kg, and the volume was 2.0 mL/kg.
The intragastric administration group: Blood (1.0 mL) was collected from the jugular vein or the forelimb vein into EDTA-K2 anticoagulation tubes before administration and 0.25 h, 0.5 h, 1.0 h, 2.0 h, 4.0 h, 6.0 h, 8.0 h, 12.0 h and 24.0 h after administration and centrifuged at 10,000 rpm for 5 min (4° C.). The plasma was separated within 1 h and stored at −80° C. before analysis. The process from blood collection to centrifugation was performed in an ice bath. Three hours after administration, feeding was resumed.
The intravenous administration groups: Blood was collected before administration and 5 min, 0.25 h, 0.5 h, 1.0 h, 2.0 h, 4.0 h, 8.0 h, 12.0 h and 24 h after administration and processed as in the intragastric administration groups.
The plasma concentrations of the test compounds were determined after administration of different concentrations of the test compounds to beagles: plasma samples (50 μL) were collected from beagles at various time points after administration, and proteins were precipitated with 500 μL of methanol (containing 100 ng/mL internal standard Verapamil) for each of the samples; the mixtures were vortexed for 1 min and centrifuged at 18,000 g for 7 min. 500 μL of supernatant was transferred to a 96-well plate. 1 μL of supernatant was collected for LC/MS/MS analysis.

[1] = both sexes, beagle, dog, plasma, iv, i.v., 0.5 mg/kg
[2] = both sexes, beagle, dog, plasma, po, i.g., 2.0 mg/kg

Clearance CL/F (i.v., 0.5 mg/kg): 2.8 mL/min/kg
AUC(0-t) [1]: 2680 ng·h/mL
half-life [1]: 8.1 h
Cmax [1]: 600 ng/mL
Vd/F (both sexes, beagle, dog, plasma, po, i.g., 2.0 mg/kg, read-out: Apparent distribution volume Vz/F): 5.5 L/kg
AUC(0-t) [2]: 4050 ng·h/mL
CL/F (both sexes, beagle, dog, plasma, po, i.g., 2.0 mg/kg, read-out: Clearance CL/F): 7.3 mL/min/kg
half-life [2]: 9 h
Cmax [2]: 324 ng/mL
SMILES: O=C1CCC(N2Cc3cc(N4CCN(CC5CCN(c6ccc([C@@H]7c8ccc(O)cc8CC[C@@H]7c7ccccc7)cc6)CC5)CC4)ccc3C2=O)C(=O)N1 (stereo partly drawn) [Comparative Example 1, reference compound]
